According to PMC9503132, “Development of Halogenated-Chalcones Bearing with Dimethoxy Phenyl Head as Monoamine Oxidase-B Inhibitors” (Pharmaceuticals, 2022):
Like-named read-outs stand apart in the source and are kept apart here.

Legend:
BACE-1 = molecular target: T1, BACE-1 (Homo sapiens, UniProt P56817); assay: BACE-1 inhibition (β-secretase activity detection kit); format: biochemical; conditions: read-out: Residual activity at 10 µM (%) BACE-1
T1 construct: purchased Sigma-Aldrich
Protocol: (§1) The AChE and BChE inhibitory activities were measured by continuous colorimetric determination method, in the presence of 0.5 mM acetylthiocholine iodide (ACTI) and butyrylthiocholine iodide […]
(§2) POP, K LAB, Daejeon, Korea). After adding the substrate, 0.5 mM 5,5-dithiobis (2-nitrobenzoic acid) (DTNB) was added as the color development solution. The BACE-1 inhibitory activity was evaluated by β-secretase (BACE1) activity detection kit (Sigma-Aldrich, St. Louis, Mo, USA) using a fluorescence spectrometer (FS-2, Scinco, Seoul, Korea). […]

MAO-B = molecular target: T2, MAO-B (Homo sapiens, UniProt P27338); assay: MAO-B inhibition assay (recombinant enzyme, benzylamine substrate); format: biochemical; conditions: for remaining activity at 10 µM: read-out: Residual Activity at 10 µM (%) MAO-B
T2 construct: purchased Sigma-Aldrich
T2 sequence (P27338 1-520): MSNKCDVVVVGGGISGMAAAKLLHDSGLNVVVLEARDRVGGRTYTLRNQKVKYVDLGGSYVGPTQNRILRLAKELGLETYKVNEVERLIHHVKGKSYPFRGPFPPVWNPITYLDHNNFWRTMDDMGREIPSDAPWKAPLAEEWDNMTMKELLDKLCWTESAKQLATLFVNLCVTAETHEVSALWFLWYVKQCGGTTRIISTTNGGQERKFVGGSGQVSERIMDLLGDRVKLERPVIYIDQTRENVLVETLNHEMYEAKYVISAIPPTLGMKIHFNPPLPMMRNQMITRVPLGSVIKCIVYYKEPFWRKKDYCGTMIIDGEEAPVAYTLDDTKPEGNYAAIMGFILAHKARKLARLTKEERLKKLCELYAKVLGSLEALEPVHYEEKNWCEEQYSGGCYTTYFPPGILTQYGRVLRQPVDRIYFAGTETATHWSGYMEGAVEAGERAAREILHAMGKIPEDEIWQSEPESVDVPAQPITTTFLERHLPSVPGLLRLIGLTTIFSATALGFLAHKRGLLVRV
Protocol: (§3) Recombinant MAO-A and MAO-B were used to test the MAO inhibitory activity using the substrates kynuramine and benzylamine (0.06 mM and 0.3 mM, respectively). […] Chemicals were from Sigma-Aldrich.
(§4) MAO-A At 10 µM, compounds’ inhibitory effects on MAOs were initially recorded. […] The SI values of MAO-B were calculated by dividing the IC50 values for MAO-A and those for MAO-B. The MAO-B was used to study the kinetics of substances DM2 or DM18 at five different substrate concentrations. By using the LB plots and their secondary plots at three different inhibitor doses, the inhibition patterns were examined.

MAO-A = molecular target: T3, MAO-A (Homo sapiens, UniProt P21397); assay: MAO-A inhibition assay (recombinant enzyme, kynuramine substrate); format: biochemical; conditions: for remaining activity at 10 µM: read-out: Residual Activity at 10 µM (%) MAO-A
T3 construct: purchased Sigma-Aldrich
T3 sequence (P21397 1-527): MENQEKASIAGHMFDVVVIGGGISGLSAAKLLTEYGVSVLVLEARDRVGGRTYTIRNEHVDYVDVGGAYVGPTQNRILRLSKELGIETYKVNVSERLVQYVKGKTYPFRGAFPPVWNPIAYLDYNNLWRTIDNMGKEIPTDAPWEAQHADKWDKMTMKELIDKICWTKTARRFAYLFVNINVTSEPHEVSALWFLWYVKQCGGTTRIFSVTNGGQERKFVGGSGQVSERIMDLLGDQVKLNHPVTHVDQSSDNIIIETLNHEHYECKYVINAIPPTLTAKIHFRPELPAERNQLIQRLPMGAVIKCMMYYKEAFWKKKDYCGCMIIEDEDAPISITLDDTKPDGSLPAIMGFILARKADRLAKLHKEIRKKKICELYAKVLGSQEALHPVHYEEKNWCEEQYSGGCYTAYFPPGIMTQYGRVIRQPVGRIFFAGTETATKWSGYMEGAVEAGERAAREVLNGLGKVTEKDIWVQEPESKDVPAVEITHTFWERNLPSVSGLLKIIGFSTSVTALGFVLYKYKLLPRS
Protocol: as §3, §4

BChE = BChE (Equus caballus, UniProt P81908); assay: biochemical; conditions: read-out: Residual activity at 10 µM (%) BChE
Sequence of BChE (P81908 whole entry): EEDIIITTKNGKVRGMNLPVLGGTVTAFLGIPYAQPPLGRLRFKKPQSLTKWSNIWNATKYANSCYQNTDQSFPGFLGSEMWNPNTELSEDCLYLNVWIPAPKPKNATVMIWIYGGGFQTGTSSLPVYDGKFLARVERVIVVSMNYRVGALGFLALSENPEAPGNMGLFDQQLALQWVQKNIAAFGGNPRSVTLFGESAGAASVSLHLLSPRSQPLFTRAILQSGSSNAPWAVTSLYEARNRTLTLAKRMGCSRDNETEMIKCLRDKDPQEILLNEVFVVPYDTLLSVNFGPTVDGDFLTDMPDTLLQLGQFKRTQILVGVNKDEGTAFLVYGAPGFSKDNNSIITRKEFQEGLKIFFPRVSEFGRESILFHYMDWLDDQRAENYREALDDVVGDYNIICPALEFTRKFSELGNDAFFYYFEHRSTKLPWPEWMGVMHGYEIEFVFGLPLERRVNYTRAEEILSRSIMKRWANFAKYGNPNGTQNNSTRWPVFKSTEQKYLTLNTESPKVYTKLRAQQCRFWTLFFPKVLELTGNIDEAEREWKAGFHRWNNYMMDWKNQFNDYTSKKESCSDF
Protocol: as §1, §2

AChE = AChE (Electrophorus electricus, UniProt O42275); assay: AChE inhibition (colorimetric, acetylthiocholine iodide); format: biochemical; conditions: read-out: Residual activity at 10 µM (%) AChE
Sequence of AChE (O42275 24-633): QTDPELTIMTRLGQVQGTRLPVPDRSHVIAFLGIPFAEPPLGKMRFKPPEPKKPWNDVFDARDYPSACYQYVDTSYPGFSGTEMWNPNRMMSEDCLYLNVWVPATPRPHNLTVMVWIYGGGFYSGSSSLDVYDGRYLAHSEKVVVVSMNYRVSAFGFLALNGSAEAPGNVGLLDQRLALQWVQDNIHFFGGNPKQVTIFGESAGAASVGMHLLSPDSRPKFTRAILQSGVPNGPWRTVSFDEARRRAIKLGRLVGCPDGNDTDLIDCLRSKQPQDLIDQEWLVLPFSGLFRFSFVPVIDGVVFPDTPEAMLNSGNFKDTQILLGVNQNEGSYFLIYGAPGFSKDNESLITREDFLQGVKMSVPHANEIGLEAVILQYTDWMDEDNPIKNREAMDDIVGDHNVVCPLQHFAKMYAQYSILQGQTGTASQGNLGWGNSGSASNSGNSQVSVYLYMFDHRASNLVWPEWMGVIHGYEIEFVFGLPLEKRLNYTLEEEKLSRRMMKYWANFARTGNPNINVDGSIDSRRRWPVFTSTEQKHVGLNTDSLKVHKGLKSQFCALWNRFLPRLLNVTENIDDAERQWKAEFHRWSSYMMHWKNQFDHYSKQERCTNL
Protocol: as §1
POP, K LAB, Daejeon, Korea). After adding the substrate, 0.5 mM 5,5-dithiobis (2-nitrobenzoic acid) (DTNB) was added as the color development solution. The BACE-1 inhibitory activity was evaluated by β-secretase (BACE1) activity detection kit (Sigma-Aldrich, St. Louis, Mo, USA) using a fluorescence spectrometer (FS-2, Scinco, Seoul, Korea).
64. […] A new and rapid colorimetric determination of acetylcholinesterase activity. Biochem. Pharmacol. 7, 88-95. […]

[1] = IC50 MAO-A divided by IC50 MAO-B
[2] = 10 µM compound, recombinant MAO-B, benzylamine 0.3 mM
[3] = recombinant MAO-B, benzylamine 0.3 mM, read-out: IC50 (µM) MAO-B
[4] = 10 µM compound, recombinant MAO-A, kynuramine 0.06 mM
[5] = recombinant MAO-A, kynuramine 0.06 mM, read-out: IC50 (µM) MAO-A

T1 sequence (P56817 46-501): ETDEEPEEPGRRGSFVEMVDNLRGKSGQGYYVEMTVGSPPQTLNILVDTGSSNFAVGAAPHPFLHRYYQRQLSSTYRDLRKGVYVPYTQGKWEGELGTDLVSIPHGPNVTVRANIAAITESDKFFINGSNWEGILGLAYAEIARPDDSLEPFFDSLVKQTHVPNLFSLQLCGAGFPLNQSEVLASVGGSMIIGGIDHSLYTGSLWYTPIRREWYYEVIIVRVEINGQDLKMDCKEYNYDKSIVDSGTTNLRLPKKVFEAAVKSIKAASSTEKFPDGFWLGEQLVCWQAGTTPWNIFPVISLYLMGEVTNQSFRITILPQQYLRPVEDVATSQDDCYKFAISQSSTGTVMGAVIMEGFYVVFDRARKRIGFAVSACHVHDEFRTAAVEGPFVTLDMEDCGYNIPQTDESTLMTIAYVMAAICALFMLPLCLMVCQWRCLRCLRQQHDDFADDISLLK

| Structure (SMILES) | remaining activity at 10 µM (BACE-1) [%] | IC50 (MAO-B) [µM] | SI (selectivity index for MAO-B as compared to MAO-A) (MAO-B; [1]) | remaining activity at 10 µM (MAO-B) [%] | IC50 (MAO-A) [µM] | remaining activity at 10 µM (MAO-A) [%] | remaining activity at 10 µM (BChE) [%] | remaining activity at 10 µM (AChE) [%] | remaining activity at 10 µM (BACE-1; 10 µM compound) [%] | remaining activity at 10 µM (MAO-B; [2]) [%] | IC50 (MAO-B; [3]) [µM] | remaining activity at 10 µM (MAO-A; [4]) [%] | IC50 (MAO-A; [5]) [µM] | SI (selectivity index for MAO-B as compared to MAO-A) (MAO-B) |
| --- | --- | --- | --- | --- | --- | --- | --- | --- | --- | --- | --- | --- | --- | --- |
| COc1ccc(C(=O)/C=C/c2ccccc2)c(OC)c1 [DM1] | 92.67 ± 0.26 | 0.927 ± 0.021 | 16.61 | 17.6 ± 0.74 | 15.4 ± 1.97 | 57.2 ± 1.91 | 93.21 ± 0.3 | 75.6 ± 2.35 |  |  |  |  |  |  |
| COc1ccc(C(=O)/C=C/c2cccc(Cl)c2)c(OC)c1 [DM3] |  |  | 44.08 |  |  |  | 69.87 ± 0.19 | 81.5 ± 4.09 | 99.67 ± 0.53 | 7.89 ± 0.63 | 0.13 ± 0.023 | 43.3 ± 1.2 | 5.73 ± 0.142 |  |
| COc1ccc(C(=O)/C=C/c2ccc(Cl)cc2)c(OC)c1 [DM4] | 90.82 ± 0.09 | 0.589 ± 0.055 | 7.61 | 18.6 ± 1.04 | 4.48 ± 0.152 | 38.8 ± 3.4 | 80.1 ± 1.59 | 74.2 ± 2.43 |  |  |  |  |  |  |
| COc1ccc(C(=O)/C=C/c2ccccc2Br)c(OC)c1 [DM5] |  |  | 77.02 |  |  |  | 60.54 ± 0.03 | 71.2 ± 6.12 | 87.8 ± 0.29 | 10.6 ± 1.88 | 0.161 ± 0.02 | 54.5 ± 4.32 | 12.4 ± 0.872 |  |
| COc1ccc(C(=O)/C=C/c2cccc(Br)c2)c(OC)c1 [DM6] |  |  | 86.49 |  |  |  | 79.7 ± 1.1 | 73 ± 0.75 | 88.53 ± 0.22 | 5.5 ± 0.64 | 0.148 ± 0.087 | 62.7 ± 1.32 | 12.8 ± 1.57 |  |
| COc1ccc(C(=O)/C=C/c2ccc(Br)cc2)c(OC)c1 [DM7] |  |  | 5.60 |  |  |  | 98.2 ± 1.01 | 87.2 ± 1.19 | 97.29 ± 0.34 | 15.6 ± 1.78 | 0.844 ± 0.023 | 40.3 ± 1.05 | 4.733 ± 0.005 |  |
| COc1ccc(C(=O)/C=C/c2ccccc2F)c(OC)c1 [DM8] |  |  | 11.90 |  |  |  | 85.42 ± 0.67 | 82.7 ± 10.4 | 91.01 ± 0.06 | 11.1 ± 1.44 | 1.13 ± 0.033 | 56.4 ± 7.34 | 13.4 ± 0.82 |  |
| COc1ccc(C(=O)/C=C/c2cccc(F)c2)c(OC)c1 [DM9] |  |  | 45.93 |  |  |  | 72.5 ± 3.69 | 71.9 ± 3.06 | 88.2 ± 0.28 | 10.8 ± 0.23 | 0.246 ± 0.074 | 50.6 ± 0.82 | 11.3 ± 1.06 |  |
| COc1ccc(C(=O)/C=C/c2ccc(F)cc2)c(OC)c1 [DM10] |  |  | 8.14 |  |  |  | 92.84 ± 0.51 | 64.3 ± 6.85 | 87.13 ± 0.42 | 23.2 ± 0.37 | 1.96 ± 0.065 | 53.9 ± 7.17 | 16 ± 1.47 |  |
| COc1ccc(C(=O)/C=C/c2ccccc2)cc1OC [DM11] |  |  | 6.54 |  |  |  | 80.5 ± 1.36 | 80.3 ± 5.21 | 97.5 ± 1.02 | 14.6 ± 3.48 | 2.19 ± 0.098 | 64.6 ± 0.72 | 14.3 ± 1.83 |  |
| COc1ccc(C(=O)/C=C/c2ccccc2Cl)cc1OC [DM12] |  |  | >32.65 |  |  |  | 63.5 ± 1.47 | 68.5 ± 2.87 | 94.3 ± 1.06 | 8.98 ± 0.92 | 1.23 ± 0.25 | 88.7 ± 9.4 | > 40 |  |
| COc1ccc(C(=O)/C=C/c2cccc(Cl)c2)cc1OC [DM13] |  |  | >8.51 |  |  |  | 100 ± 7.32 | 95 ± 3.4 | 99.86 ± 0.28 | 7.49 ± 0.12 | 4.7 ± 0.32 | 75.6 ± 0.88 | > 40 |  |
| COc1ccc(C(=O)/C=C/c2ccc(Cl)cc2)cc1OC [DM14] |  |  | >48.02 |  |  |  | 76.5 ± 1.37 | 97.6 ± 3.42 | 99.83 ± 0.81 | 9.45 ± 2.88 | 0.833 ± 0.087 | 98.8 ± 1.77 | > 40 |  |
| COc1ccc(C(=O)/C=C/c2ccccc2Br)cc1OC [DM15] |  |  | >55.87 |  |  |  | 55.2 ± 1.01 | 83.9 ± 4.91 | 99.54 ± 0.24 | 10.2 ± 0.17 | 0.716 ± 0.056 | 77.5 ± 7.07 | > 40 |  |
| COc1ccc(C(=O)/C=C/c2cccc(Br)c2)cc1OC [DM16] |  |  | >35.94 |  |  |  | 91.2 ± 1.43 | 82.7 ± 9.21 | 99.74 ± 0.04 | 11.8 ± 5.27 | 1.11 ± 0.26 | 76.9 ± 0.88 | > 40 |  |
| COc1ccc(C(=O)/C=C/c2ccc(Br)cc2)cc1OC [DM17] |  |  | >273.97 |  |  |  | 68.9 ± 1.57 | 81.8 ± 6.31 | 100.03 ± 0.04 | 13.8 ± 0.61 | 0.146 ± 0.041 | 96.88 ± 0.88 | > 40 |  |
| COc1ccc(C(=O)/C=C/c2cccc(F)c2)cc1OC [DM19] |  |  | >88.89 |  |  |  | 103 ± 8.13 | 70 ± 2.02 | 99.86 ± 0.12 | 3.94 ± 1.76 | 0.45 ± 0.071 | 93.7 ± 7.16 | > 40 |  |
| COc1ccc(C(=O)/C=C/c2ccc(F)cc2)cc1OC [DM20] |  |  |  |  |  |  | 93.1 ± 6.5 | 86.98 ± 0.45 | 99.89 ± 0.08 | 3.7 | 0.483 ± 0.077 | 97.5 ± 8.95 | > 40 | >83.82 |
